Data as given in patent US20120190707A1, “SELECTIVE INHIBITORS OF AKT AND METHODS OF USING SAME” (priority 2008, published 2012).

Columns and labels:
p38.alpha = p38.alpha (Homo sapiens, UniProt Q16539); test: Activity of other protein kinases: p38.alpha; format: biochemical; conditions: 100 micro.M
AKT = test: pAKT473 and total AKT by western analysis in 29-1 (PTEN+) cells; format: cell-based, human; conditions: 29-1 cells
Description: FIG. 6 describes the effect of BI-69A11 on phosphorylation and total levels of AKT in UACC 903 (PTEN−) cells. (A) UACC903 and the modified clone 29-1 (PTEN+) cells were exposed to 10 micro.M BI-69A11 and 50 micro.M LY294002 (a PI3K inhibitor) and the levels of pAKT473 and total AKT determined by western analysis. […] (SF=Serum Free). (B) BI-69A11 inhibits PRAS40 phosphorylation. UACC903 melanoma cells or 29-1 cells (PTEN+) were subjected to treatment with IGF-1 (20 ng/mL) and the level of PRAS40 phosphorylation was assessed. […] The cells were collected, lysed and levels of pPRAS40 and total PRAS40 determined by western analysis. (C) AKT association with HSP90 is inhibited by BI-69A11. Human melanoma cells were treated with BI-69A11 (10.micro.M) or DMSO control for 4 h, followed by protein preparation and immunoprecipitation using antibodies to pan-AKT. MG132 treatment, when used, initiated 1 h prior to treatment and lasted up to the preparation of proteins (total of 5 h). The right panel depicts analysis of total lysates.
The term “cell lines”, as used herein, unless otherwise indicated, refer to UACC 903 cells and 29-1 cells. The cells were cultured in DMEM, supplemented with 10% FBS and maintained at 37° C. in 5% CO2. Cells were plated to 75% confluency and grown overnight at 37° C. […]

AKT transcripts = test: QPCR analysis of AKT transcripts in melanoma cells; format: cell-based; conditions: data not shown
Text: Given the effect of BI-69A11 on the level of AKT protein, we assessed the possible mechanisms underlying such an effect. First, we assessed whether BI-69A11 affects the level of AKT transcripts. RNA prepared from the melanoma cells, with and without treatment with BI-69A11, was subjected to QPCR analysis.

p53 = test: Levels of HSP90 client protein p53; format: cell-based; conditions: data not shown
Text: Among cellular proteins implicated in the regulation of AKT levels is the cellular chaperone HSP90. Inhibition of HSP90 chaperone function, as commonly achieved by the geldanamycin antibiotic, interferes with the conformational maturation and refolding of its associated proteins, thereby promoting their degradation (Munster et al., 2002; Neckers and Neckers, 2003). […] Thus we assessed whether association of AKT with HSP90 could be affected by BI-69A11. Immunoprecipitation of AKT from melanoma cells identified HSP90 in the immunoprecipitated material. Such association was however abolished following treatment with the BI-69A11 inhibitor (FIG. 6C). […] To this end, we also performed the experiment in the presence of the proteasome inhibitor MG132.

Initial MTD assays = conditions: in vivo, 5 mg/kg; data not shown; read-out: dose at which MTD assays revealed toxicity
CHK2 = CHK2 (Homo sapiens, UniProt O96017); test: Invitrogen SelectScreen Kinase Profiling Service; format: biochemical
Description: In addition to its inhibition of AKT, BI-69A11 was tested for inhibition of additional protein kinases using the Invitrogen SelectScreen Kinase Profiling Service. The Ser/Thr protein kinase, Checkpoint Kinase 2 (CHK2), is an important component in the cellular response to DNA damage. In response to genotoxic stresses such as g-irradiation, which causes double stranded DNA breaks, the Ataxia Telangiectasia Mutated (ATM) protein kinase is activated, which in turn phosphorylates a number of downstream effectors, such as CHK2. Activation of the ATM-CHK2 axis enforces the DNA damage checkpoint response, halting the cell cycle in order to initiate DNA repair.
To accomplish this, we g-irradiated vehicle- or BI69A11-treated cells and examined ATM and CHK2 phosphorylation, a well-characterized surrogate of activation (FIG. 13). In vehicle-treated cells, g-irradiation led to the robust phosphorylation of ATM and CHK2.

Chain of p38.alpha (Q16539 whole entry): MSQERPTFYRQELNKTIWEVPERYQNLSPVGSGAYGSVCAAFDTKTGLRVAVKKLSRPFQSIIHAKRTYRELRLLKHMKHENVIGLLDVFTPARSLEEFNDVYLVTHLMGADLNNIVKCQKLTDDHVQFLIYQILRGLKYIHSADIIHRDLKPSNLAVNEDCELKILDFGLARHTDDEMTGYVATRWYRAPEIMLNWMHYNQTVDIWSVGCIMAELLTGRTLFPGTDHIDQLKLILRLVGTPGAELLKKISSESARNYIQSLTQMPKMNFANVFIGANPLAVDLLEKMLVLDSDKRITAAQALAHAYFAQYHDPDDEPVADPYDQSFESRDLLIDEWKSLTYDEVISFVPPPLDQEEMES
Chain of CHK2 (O96017 whole entry): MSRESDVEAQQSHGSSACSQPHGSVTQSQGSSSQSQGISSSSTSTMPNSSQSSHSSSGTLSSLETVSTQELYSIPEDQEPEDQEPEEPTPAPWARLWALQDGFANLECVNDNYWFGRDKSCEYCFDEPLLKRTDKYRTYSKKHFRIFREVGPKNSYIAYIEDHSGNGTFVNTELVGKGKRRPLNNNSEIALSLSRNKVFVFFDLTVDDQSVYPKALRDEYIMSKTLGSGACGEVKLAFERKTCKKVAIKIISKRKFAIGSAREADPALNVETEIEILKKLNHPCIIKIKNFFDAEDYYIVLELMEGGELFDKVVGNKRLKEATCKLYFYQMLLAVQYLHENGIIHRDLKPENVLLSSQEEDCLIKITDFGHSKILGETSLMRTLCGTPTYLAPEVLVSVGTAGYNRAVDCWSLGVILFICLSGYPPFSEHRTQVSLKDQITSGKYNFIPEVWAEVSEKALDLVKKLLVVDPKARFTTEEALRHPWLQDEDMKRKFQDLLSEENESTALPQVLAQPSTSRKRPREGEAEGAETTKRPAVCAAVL

**Q.** With `O=C(/C=C/c1nc2ccccc2[nH]1)c1c(O)nc2ccc(Cl)cc2c1-c1ccccc1` [Compound 2, (E)-3-(3-(1H-benzo[d]imidazol-2-yl)acryloyl)-6-chloro-4-phenylquinolin-2(1H)-one] as the molecule, how does the “effect on p38.alpha activity” value (p38.alpha) read?
**A.** did not affect

**Q.** And the AKT phosphorylation (AKT)?
**A.** limited to no effect

**Q.** And the “levels of total AKT” value (AKT; 10 micro.M, increasing time after treatment)?
**A.** reduced levels of total AKT

**Q.** And the “level of AKT transcripts” value (AKT transcripts)?
**A.** did not identify differences

**Q.** And the “level of p53” value (p53)?
**A.** limited effect

**Q.** What about the MTD (Initial MTD assays) of the same molecule?
**A.** 5 mg/kg

**Q.** What about the “kinase profiling result for CHK2” value (CHK2) of the same molecule?
**A.** possible target
